The assay has as its target T1, Human FXRα Ligand Binding Domain (Homo sapiens, UniProt Q96RI1).
T1 construct: polyhistidine (pRSET-A vector leader) (N); made in house; host or cells: E. coli BL21 (DE3), pRSET-A vector
T1 sequence (Q96RI1 237-472 isoform Q96RI1-2): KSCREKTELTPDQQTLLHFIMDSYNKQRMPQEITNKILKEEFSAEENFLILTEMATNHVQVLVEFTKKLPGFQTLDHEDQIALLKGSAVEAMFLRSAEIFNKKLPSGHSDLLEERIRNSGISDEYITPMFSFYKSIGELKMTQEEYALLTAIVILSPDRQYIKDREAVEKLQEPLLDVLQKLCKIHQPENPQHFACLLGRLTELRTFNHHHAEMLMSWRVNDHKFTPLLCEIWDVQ
Nature of the assay: FXR Cofactor Binding Assay (ligand mediated SRC-1 cofactor peptide interaction, time resolved fluorescence). Type of assay: biochemical. The note with it: FXRα LBD / SRC-1 (LCD2, 676-700) peptide, TRF; read-out: Activity (pEC50) (converted). From the text:
Determination of a ligand mediated cofactor peptide interaction to quantify ligand binding to the nuclear receptor Farnesoid X Receptor (FXR). The method measures the ability of putative ligands to modulate the interaction between the purified bacterial expressed FXRα ligand binding domain (LBD) and a synthetic biotinylated peptide based on residues 676-700 of steroid receptor coactivator-1 (SRC-1) (LXXLL-containing domain-2 where L is the amino acid leucine and X indicates any other amino acid (LCD2), 676-700). The sequence of the SRC-1 peptide used is as published in Iannone, M. A., et al., 2001 Cytometry 44:326-337 where the N-terminus was biotinylated (B) and the C-terminus was amidated. Detection of the associated complex was measured by time resolved fluorescence (TRF). The purified LBD of FXR was labeled with biotin, then mixed with stoichiometric amounts of allophycocyanin (APC) labeled streptavidin (Molecular Probes). The biotinylated peptide was then mixed with a ½ stoichiometric amount of europium labeled streptavidin (Wallac Inc). Each was then blocked with a 5 fold excess of biotin and allowed to equilibrate for 15 min. Equimolar amounts of receptor and peptide were mixed together and were allowed to equilibrate for at least 30 min prior to the addition to either a variable or constant concentrations of the sample for which the affinity is to be determined. After equilibration, the time-resolved fluorescent signal was quantitated using a fluorescent plate reader. The affinity of the test compound was estimated from a plot of fluorescence versus concentration of test compound added.
Ligands that promote the complex formation induce a concentration-dependent increase in time-resolved fluorescent signal.
Human FXRα Ligand Binding Domain (FXRα LBD) was expressed in E. coli strain BL21 (DE3) as an amino-terminal polyhistidine tagged fusion protein. Expression was under the control of an isopropyl-β-D-thiogalactopyranoside (IPTG) inducible T7 promoter. DNA encoding this recombinant protein is subcloned into the pRSET-A expression vector (Invitrogen). The coding sequence of Human FXRα LBD was derived from Genbank accession number U 68233 (amino acids 237 to 472).
Ten-liter fermentation batches were grown in Rich PO4 media with 0.1 mg/mL Ampicillin at 25° C. for 12 hours, cooled to 9° C. and held at that temperature for 36 hours to a density of OD600=14. At this cell density, 0.25 mM IPTG is added and induction proceeded for 24 hours at 9° C., to a final OD600=16. Cells are harvested by centrifugation (20 minutes, 3500×gravity, 4° C.), and concentrated cell slurries were stored in phosphate buffered saline (PBS) at […].
Routinely, 30-40 g cell paste (equivalent to 2-3 liters of the fermentation batch) was resuspended in 200-250 mL Tris buffered saline (TBS), pH 7.2 (25 mM Tris-hydroxymethylamino methane (Tris), 150 mM sodium chloride). Cells were lysed by passing 3 times through a French Press and cell debris was removed by centrifugation (30 minutes, 20,000×gravity, 4° C.). The cleared supernatant was filtered through course pre-filters, and TBS, pH 7.2, 500 mM imidazole was added to obtain a final imidazole concentration of 50 mM. This lysate was loaded onto a column (6×8 cm) packed with Sepharose [Ni^++ charged] Chelation resin (Pharmacia) and pre-equilibrated with TBS pH 7.2/50 mM imidazole. After washing to baseline absorbance with equilibration buffer, the column was washed with one column volume of TBS pH 7.2 containing 90 mM imidazole. FXRα LBD was eluted directly with 365 mM imidazole. Column fractions were pooled and dialyzed against TBS, pH 7.2, containing 0.5 mM EDTA and 5 mM DTT. The dialyzed protein sample was concentrated using Centri-prep 10 K (Amicon) and subjected to size exclusion, using a column (3×90 cm) packed with Sepharose S-75 resin (Pharmacia) pre-equilibrated with TBS, pH 7.2, containing 0.5 mM ethylene diamine tetraacetic acid (EDTA) and 5 mM dithiothreitol (DTT).

Take `Cc1cccc(C)c1OCc1noc(C(C)C)c1COc1ccc2c(ccn2Cc2cccc(C(=O)O)c2)c1` [Example 1, 3-{[5-({[3-{[(2,6-dimethylphenyl)oxy]methyl}-5-(1-methylethyl)-4-isoxazolyl]methyl}oxy)-1H-indol-1-yl]methyl}benzoic acid]: the EC50 is 102 to 1000 nM.

Regarding `CC(C)c1onc(COc2c(F)cc(F)cc2F)c1COc1ccc2c(ccn2Cc2cccc(C(=O)O)c2)c1` [Example 2, 3-[(5-{[(5-(1-methylethyl)-3-{[(2,4,6-trifluorophenyl)oxy]methyl}-4-isoxazolyl)methyl]oxy}-1H-indol-1-yl)methyl]benzoic acid], the EC50 is 1020 to 10000 nM. The value for `CC(C)c1onc(COc2c(Cl)cc(Cl)cc2Cl)c1COc1ccc2c(ccn2Cc2cccc(C(=O)O)c2)c1` [Example 3, 3-[(5-{[(5-(1-methylethyl)-3-{[(2,4,6-trichlorophenyl)oxy]methyl}-4-isoxazolyl)methyl]oxy}-1H-indol-1-yl)methyl]benzoic acid] was 102 to 1000 nM. On to `CC(C)c1onc(CNc2c(Cl)cccc2Cl)c1COc1ccc2c(ccn2Cc2cccc(C(=O)O)c2)c1` [Example 4, 3-{[5-({[3-{[(2,6-dichlorophenyl)amino]methyl}-5-(1-methylethyl)-4-isoxazolyl]methyl}oxy)-1H-indol-1-yl]methyl}benzoic acid], for which the EC50 is 1020 to 10000 nM. In the case of `CC(C)c1onc(COc2c(Br)cccc2Br)c1COc1ccc2c(ccn2Cc2cccc(C(=O)O)c2)c1` [Example 5, 3-{[5-({[3-{[(2,6-dibromophenyl)oxy]methyl}-5-(1-methylethyl)-4-isoxazolyl]methyl}oxy)-1H-indol-1-yl]methyl}benzoic acid], the EC50 is 102 to 1000 nM. With `CC(C)c1onc(CSc2nccs2)c1COc1ccc2c(ccn2Cc2cccc(C(=O)O)c2)c1` [Example 6, 3-({5-[({5-(1-methylethyl)-3-[(1,3-thiazol-2-ylthio)methyl]-4-isoxazolyl}methyl)oxy]-1H-indol-1-yl}methyl)benzoic acid], the EC50 is 1020 to 10000 nM. Then `CC(C)c1onc(-c2ccccc2OC(F)(F)F)c1COc1ccc2c(ccn2Cc2cccc(C(=O)O)c2)c1` [Example 7, 3-[(5-{[(5-(1-Methylethyl)-3-{2-[(trifluoromethyl)oxy]phenyl}-4-isoxazolyl)methyl]oxy}-1H-indol-1-yl)methyl]benzoic acid], with 102 to 1000 nM. Take `CC(C)c1onc(-c2c(Cl)cncc2Cl)c1COc1ccc2ccn(Cc3cccc(C(=O)O)c3)c2c1` [Example 8, 3-{[6-({[3-(3,5-dichloro-4-pyridinyl)-5-(1-methylethyl)-4-isoxazolyl]methyl}oxy)-1H-indol-1-yl]methyl}benzoic acid]: the EC50 is 102 to 1000 nM. Then `CC(C)c1onc(-c2c(Cl)cccc2Cl)c1COc1ccc2cc(-c3ccc(C(=O)O)cc3)sc2c1` [Example 9, 4-[6-({[3-(2,6-Dichlorophenyl)-5-(1-methylethyl)-4-isoxazolyl]methyl}oxy)-1-benzothien-2-yl]benzoic acid], with 102 to 1000 nM; and `CC(C)c1onc(-c2c(Cl)cccc2Cl)c1COc1ccc2c(ccn2C(=O)c2cccc(C(=O)O)c2)c1` [Example 10, 3-{[5-({[3-(2,6-Dichlorophenyl)-5-(1-methylethyl)-4-isoxazoly]methyl}oxy)-1H-indol-1-yl]carbonyl}benzoic acid], with 102 to 1000 nM. Then `CC(C)c1onc(-c2c(Cl)cccc2Cl)c1COc1ccc2nc(-c3cccc(C(=O)O)c3)sc2c1` [Example 11, 3-[6-({[3-(2,6-Dichlorophenyl)-5-(1-methylethyl)-4-isoxazolyl]methyl}oxy)-1,3-benzothiazol-2-yl]benzoic acid], with 102 to 1000 nM. The value for `CC(C)c1onc(-c2c(Cl)cccc2Cl)c1COc1ccc2c(ccn2Cc2cccc(-c3nnn[nH]3)c2)c1` [Example 12, 5-({[3-(2,6-Dichlorophenyl)-5-(1-methylethyl)-4-isoxazolyl]methyl}oxy)-1-{[3-(1H-tetrazol-5-yl)phenyl]methyl}-1H-indole] was 102 to 1000 nM. For `CC(C)c1onc(-c2c(Cl)cccc2Cl)c1COc1ccc2c(ccn2Cc2ccc(C(=O)O)cc2)c1` [Example 13, 4-{[5-({[3-(2,6-Dichlorophenyl)-5-(1-methylethyl)-4-isoxazolyl]methyl}oxy)-1H-indol-1-yl]methyl}benzoic acid], the EC50 is 102 to 1000 nM. With `CC(C)c1onc(COc2c(Cl)cc(F)cc2Cl)c1COc1ccc2c(ccn2Cc2cccc(C(=O)O)c2)c1` [Example 14, 3-{[5-({[3-{[(2,6-Dichloro-4-fluorophenyl)oxy]methyl}-5-(1-methylethyl)-4-isoxazolyl]methyl}oxy)-1H-indol-1-yl]methyl}benzoic acid], the EC50 was 102 to 1000 nM. As for `CC(C)c1onc(COc2c(Cl)cccc2Cl)c1COc1ccc2c(ccn2Cc2cccc(C(=O)O)c2)c1` [Example 15, 3-{[5-({[3-{[(2,6-Dichlorophenyl)oxy]methyl}-5-(1-methylethyl)-4-isoxazolyl]methyl}oxy)-1H-indol-1-yl]methyl}benzoic acid], the EC50 was 102 to 1000 nM.

Consider `CC(C)c1onc(-c2c(Cl)cccc2Cl)c1COc1ccc2sc(-c3ccc(C(=O)O)cc3)cc2c1` [Example 16, 4-[5-({[3-(2,6-Dichlorophenyl)-5-(1-methylethyl)-4-isoxazolyl]methyl}oxy)-1-benzothien-2-yl]benzoic acid], for which the EC50 is 102 to 1000 nM. The value for `CC(C)c1onc(-c2c(Cl)cccc2Cl)c1COc1ccc2cc(-c3cncc(C(=O)O)c3)ccc2c1` [Example 17, 5-[6-({[3-(2,6-Dichlorophenyl)-5-(1-methylethyl)-4-isoxazolyl]methyl}oxy)-2-naphthalenyl]-3-pyridinecarboxylic acid] was 102 to 1000 nM; that for `CC(C)c1onc(-c2c(Cl)cccc2Cl)c1COc1ccc2cc(-c3cccc(C(=O)O)n3)ccc2c1` [Example 18, 6-[6-({[3-(2,6-Dichlorophenyl)-5-(1-methylethyl)-4-isoxazolyl]methyl}oxy)-2-naphthalenyl]-2-pyridinecarboxylic acid] was 102 to 1000 nM; that for `CC(C)c1onc(-c2c(Cl)cccc2Cl)c1COc1ccc2cc(-c3ccc(C(=O)O)nc3)ccc2c1` [Example 19, 5-[6-({[3-(2,6-Dichlorophenyl)-5-(1-methylethyl)-4-isoxazolyl]methyl}oxy)-2-naphthalenyl]-2-pyridinecarboxylic acid] was 102 to 1000 nM. In the case of `CC(C)c1onc(-c2c(Cl)cccc2Cl)c1COc1ccc2cc(-c3ccnc(C(=O)O)c3)ccc2c1` [Example 20, 4-[6-({[3-(2,6-Dichlorophenyl)-5-(1-methylethyl)-4-isoxazolyl]methyl}oxy)-2-naphthalenyl]-2-pyridinecarboxylic acid], the EC50 was 102 to 1000 nM. For the compound `CC(C)c1onc(-c2c(Cl)cccc2Cl)c1COc1ccc2cc(-c3cc(C(=O)O)ccn3)ccc2c1` [Example 21, 2-[6-({[3-(2,6-Dichlorophenyl)-5-(1-methylethyl)-4-isoxazolyl]methyl}oxy)-2-naphthalenyl]-4-pyridinecarboxylic acid], the EC50 was 102 to 1000 nM.
